Experimental data reported in patent US20030170643A1, “Regulation of apoB treatment and drug screening for cardiovascular and metabolic disorders or syndromes” (priority 1999, published 2003).

System: rat primary hepatocytes
Experiment: Secretion of newly synthesized ([35S]methionine-labeled) VLDL-apoproteins by rat primary hepatocytes incubated with fatty acid/BSA complexes
Format: cell-based
Settings: fatty acid/BSA complexes (0.8 mM FA), VLDL fraction
Procedure: Cells were plated at a density of 2×10^6 cells/ml on 60-mm culture dishes (previously coated with poly-D-lysine) in modified M199 medium (M199, 1% fetal bovine serum [FBS], 1 mM nicotinamide, 0.1 nM insulin, 3 mg/ml choline, 1.1% L-glutamine, 1% BSA). After a four-hour attachment period, the medium was changed (modified M199 identical to the above except BSA was omitted and the concentration of FBS was raised to 10%). The next morning, cells were washed in serum-free medium three times, the experimental media added, and the cells incubated at 37° C. for 4-6 hours. The experimental medium consisted of serum-free RPMI containing the appropriate isotopes (see below) and fatty acids (FA) present at a final concentration of 0.8 mM complexed to BSA (FA:BSA molar ratio=5:1). The fatty acids used were oleic (OA), EPA, and DHA. Control medium was identical, except that BSA (0.16 mM) without fatty acids was present. For metabolic labeling of proteins, [^35S]methionine (70 uCi/ml) was included in the experimental media.
Following the 4-6 hour incubation period, the cell monolayer was washed, then solubilized in 0.1 M NaOH, and the cell protein determined by the Lowry method (Lowry, O. H., Rosebrough, N. J., Farr, A. L., and Randall, R. J. (1951) J Biol Chem 193, 265-75). Each 60 mm dish contained approximately 1-1.5 mg of cell protein. The secreted apoproteins were isolated from the medium either by ultracentrifugation or immunoprecipitation. To isolate the d<1.006 (VLDL) and 1.006<d<1.063 (IDL and LDL) g/ml density classes by centrifugation, sequential 20 hour runs at 48,000 rpm in a 50 Ti Beckman rotor at 4° C. were performed. After the first run at d=1.006, the upper VLDL layer was harvested and the density of the infranatant adjusted to 1.066 g/ml with solid KBr. After being overlaid with a KBr solution of density 1.063, the adjusted infranatant was re-centrifuged as before to isolate the IDL and LDL fractions. In some experiments, the HDL fraction (1.063<d<1.21) was isolated by sequential density centrifugation. Lipoprotein fractions were then dialyzed against 0.9% NaCl containing 10 mM unlabeled methionine, 0.2 mM PMSF, and 2 mM EDTA. Dialyzed lipoproteins were delipidated using 9 volumes of 100% isopropanol. Apoproteins were then collected by centrifugation in a Sorval HB-4 rotor at 10,000 rpm and 4° C. for 20 min, and dissolved in buffer (0.01 M phosphate, pH 7,1 % SDS, 10% glycerol), in preparation for electrophoresis.
To immunoprecipitate apoB or apoE from unfractionated conditioned medium, monospecific rabbit antiserum to rat apoB or apoE was used. Briefly, an aliquot of the medium was mixed with an equal volume of diluted antiserum (1:100 in PBS and 1% BSA) and incubated overnight at 4° C. Staph A was added in the form of immunoprecipitin, and the resultant precipitate containing the immune complexes was washed extensively, the staph A cells removed, and the isolated apoprotein dissolved in gel sample buffer (0.0625M tris/Cl, pH 6.8, 20% glycerol, 2% SDS). Electrophoretic separation of apoVLDL, apoIDL/LDL, and immunoprecipitates was accomplished using 3.5% acrylamide-18% glycerol gels as described (Maguire, G. F., Lee, M., and Connelly, P. W. (1989) J Lipid Res 30, 757-61). An aliquot of each sample was taken for scintillation counting, so that total radioactivity applied to each lane could be determined. Also, protein size standards were included in each gel.
After electrophoresis, the gels were stained, fixed, soaked in Enhance fluor solution, and dried following protocols supplied by the manufacturer. Dried gels were then exposed to X-ray film at −70° C. and signals on the resulting fluorograms were typically quantified by densitometry or phosphorimaging. Using the total radioactivity applied to each lane of the gel and the relative signal intensity of each band in that lane, the radioactivity associated with each apoprotein species was calculated. […]

CCCCCCCC/C=C\CCCCCCCC(=O)O [OA, oleic acid] was tested, and the “secretion of newly synthesized VLDL-ApoB48, percentage of secretion observed with BSA alone” value was 132 ± 11 percentage, the “secretion of newly synthesized VLDL-ApoB100, percentage of secretion observed with BSA alone” value was 96 ± 4 percentage and the “secretion of newly synthesized VLDL-ApoE, percentage of secretion observed with BSA alone” value was 84 ± 3 percentage.
